Literature values, collected in patent publication US11648211B2, “Nanoencapsulated combination drug formulations” (priority 2019, dated 2023).
Read-outs that look alike come from different tables or passages of the source.

System: spontaneous breast cancer

Compound: Cn1ncnc1[C@H]1c2n[nH]c(=O)c3cc(F)cc(c23)N[C@@H]1c1ccc(F)cc1 [TLZ, Talazoparib]
- animals with alopecia (i.v.): 25%
- animals with alopecia (oral): 25%
